Assay results from patent US8258176B2, “Dithiolopyrrolone compounds, the preparation and the use thereof” (Shanghai Institute of Pharmaceutical Industry, priority 2007, dated 2012).
Like-named read-outs stand apart in the source and are kept apart here.

Key:
[1] = test system: peripheral blood leukocytes of normal mice; assay: Effects on peripheral blood leukocytes of normal mice (peripheral blood routine test); assay type: in vivo; details: G-CSF 22.5 ug/kg sc once a day
Text: Animal hematology analyzer, model: HEMAVET950 • 2. Method
The mice were divided into blank control group, positive control group and the dithiolopyrrolone series of compounds group, there are 10 mice in each group.

[2] = test system: peripheral blood leukocytes of model mice; details: for NE % (percentage of neutrophils in the total number of white blood cells) / WBC count: CTX model mice
Protocol: Sample: series of dithiolopyrrolone compounds were dissolved in 0.5% CMC—Na to be suspension after grinding with Tween (less than 4% usage).
Cyclophosphamide for Injection (CTX), Shanghai Hualian Pharmaceutical Co., Ltd., batch number: 050606, prepared of being dissolved in saline.
SAIGELI (G-CSF), Shanghai Sunway Biotech Co., Ltd., batch number: 051001
Animal blood analyzer, model: HEMAVET950 • 2. Method
40 BALB/c mice, were randomly divided into five groups, blank control group, positive control (G-CSF) group (22.5 ug/kg), and two dithiolopyrrolone derivatives groups (compounds 001 and 004, 20 mg/kg), CTX model group (100 mg/kg), respectively with 8 mice in each group. rThe blank control group wasn't treated in any way, the other four groups were treated with CTX intraperitoneal injection, 100 mg/kg, once a day. […] G-CSF group was given G-CSF (22.5 ug/kg) subcutaneously once a day, one day after the completing of the injection of CTX. Dithiolopyrrolone derivatives groups were administered with dithiolopyrrolone derivatives (20 mg/kg), through gavaging once a day (0.5 ml), one day after the completing of the injection of CTX. The mice of model group and blank control group were administered with an equivalent 0.5% CMC—Na solution through gavaging.
Blood specimens were collected according to conventional method via the mice orbital vein, on the 0, 4, 6, 8 day respectively, when the day of administering CTX is set as the first day, then the peripheral blood routine test was carried out, and the effect of series of dithiolopyrrolone compounds on peripheral blood leukocytes of normal mice was analyzed. • 3. Results

[3] = test system: bone marrow granulocyte series; assay: Bone marrow smear microscopic examination of CTX model mice; assay type: in vivo, BALB/c mice; details: bone marrow smear after treatment
[4] = day 0 (before administration), compounds 20 mg/kg ig once a day
[5] = day 3, compounds 20 mg/kg ig once a day
[6] = day 5, compounds 20 mg/kg ig once a day
[7] = day 0 (before CTX 100 mg/kg ip x 3 days)
[8] = day 4, CTX 100 mg/kg ip days 1-3, compounds 20 mg/kg ig, G-CSF 22.5 ug/kg sc once a day from one day after CTX
[9] = day 6, CTX 100 mg/kg ip days 1-3, compounds 20 mg/kg ig, G-CSF 22.5 ug/kg sc once a day from one day after CTX
[10] = day 8, CTX 100 mg/kg ip days 1-3, compounds 20 mg/kg ig, G-CSF 22.5 ug/kg sc once a day from one day after CTX

Molecule | NE % (percentage of neutrophils in the total number of white blood cells) [1, 4] | WBC count [1, 4] | NE % (percentage of neutrophils in the total number of white blood cells) [1, 5] | WBC count [1, 5] | NE % (percentage of neutrophils in the total number of white blood cells) [1, 6] | WBC count [1, 6] | NE % (percentage of neutrophils in the total number of white blood cells) [2, 7] | WBC count [2, 7] | NE % (percentage of neutrophils in the total number of white blood cells) [2, 8] | WBC count [2, 8] | NE % (percentage of neutrophils in the total number of white blood cells) [2, 9] | WBC count [2, 9] | NE % (percentage of neutrophils in the total number of white blood cells) [2, 10] | WBC count [2, 10] | granulocyte series in bone marrow smear (microscopic examination) [3] | total number of white blood cells and percentage of neutrophils after CTX ([2]; CTX 100 mg/kg ip once a day, after three days of administration)
CCOC(=O)Nc1c2sscc-2n(-c2ccc(OC)cc2OC)c1=O [compound 004] | 31.56% | 7.65e+09 L⁻¹ | 56.36% | 1.336e+10 L⁻¹ | 78.24% | 1.866e+10 L⁻¹ | 18.65% | 5.86e+09 L⁻¹ | 4.34% | 1.11e+09 L⁻¹ | 36.47% | 1.42e+09 L⁻¹ | 87.62% | 1.528e+10 L⁻¹ | significant hyperplasia and speeding up of the differentiation and maturation | –
COc1ccc(-n2c3cssc-3c(NC(=O)Oc3ccccc3)c2=O)c(OC)c1 [compound 001] | 33.73% | 7.89e+09 L⁻¹ | 67.44% | 1.824e+10 L⁻¹ | 72.13% | 2.496e+10 L⁻¹ | 27.32% | 5.98e+09 L⁻¹ | 2.48% | 1.21e+09 L⁻¹ | 42.71% | 2.75e+09 L⁻¹ | 76.84% | 1.844e+10 L⁻¹ | significant hyperplasia and speeding up of the differentiation and maturation | –
O=P1(N(CCCl)CCCl)NCCCO1 (stereo not shown) [CTX, Cyclophosphamide, reference compound] | – | – | – | – | – | – | 28.46% | 5.88e+09 L⁻¹ | 3.33% | 1.34e+09 L⁻¹ | 6.7% | 1.2e+09 L⁻¹ | 38.32% | 5.7e+09 L⁻¹ | severely inhibited | significantly decreased
G-CSF: granulocyte colony-stimulating factor, SAIGELI, Shanghai Sunway Biotech Co., Ltd.; positive control (protein, UniProt P09919 31-207, looked up) Granulocyte …: TPLGPASSLPQSFLLKCLEQVRKIQGDGAALQEKLVSECATYKLCHPEELVLLGHSLGIPWAPLSSCPSQALQLAGCLSQLHSGLFLYQGLLQALEGISPELGPTLDTLQLDVADFATTIWQQMEELGMAPALQPTQGAMPAFASAFQRRAGGVLVASHLQSFLEVSYRVLRHLAQP | 25.39% | 6.74e+09 L⁻¹ | 57.86% | 1.748e+10 L⁻¹ | 60.68% | 1.922e+10 L⁻¹ | 30.34% | 5.92e+09 L⁻¹ | 4.58% | 1.14e+09 L⁻¹ | 30.07% | 1.84e+09 L⁻¹ | 59.68% | 1.54e+10 L⁻¹ | significant hyperplasia and speeding up of the differentiation and maturation | –
